US10981906B2, “Substituted pyrrolopyridine JAK inhibitors and methods of making and using the same” (ACLARIS THERAPEUTICS, INC., priority 2017, dated 2021)
Where a name gives a salt, the structure may show the parent alone. Read-outs that look alike come from different tables or passages of the source.

How the values were obtained:
JAK3 (a.a. 781-1124) = JAK3 (a.a. 781-1124) (Homo sapiens (Human), UniProt P52333); assay: JAK3 enzyme activity assay (SRCtide phosphorylation, Caliper); type: biochemical; conditions: 2.5 nM JAK3, 1 μM SRCtide, 1 uM ATP, 40 minutes; read-out: JAK3 Inhibition IC50
Sequence of JAK3 (a.a. 781-1124) (P52333 781-1124): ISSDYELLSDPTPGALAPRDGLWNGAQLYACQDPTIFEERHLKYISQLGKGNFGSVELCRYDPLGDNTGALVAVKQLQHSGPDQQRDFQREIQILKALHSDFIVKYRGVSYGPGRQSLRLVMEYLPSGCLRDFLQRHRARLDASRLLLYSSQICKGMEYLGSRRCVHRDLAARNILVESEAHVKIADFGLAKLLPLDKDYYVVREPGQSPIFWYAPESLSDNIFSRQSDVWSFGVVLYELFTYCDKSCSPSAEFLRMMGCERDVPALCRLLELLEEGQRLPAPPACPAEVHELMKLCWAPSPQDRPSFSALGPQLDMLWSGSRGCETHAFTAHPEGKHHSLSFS
Experimental: The activity of JAK3 (a.a. 781-1124, ThermoFisher) was quantified by measuring the phosphorylation of SRCtide (FAM-GEEPLYWSFPAKKK-NH2). Kinase reactions were run in a 384-well Greiner plate with 2% final DMSO concentration under the buffer conditions of 20 mM HEPES, pH 7.5, 10 mM MgCl2, 0.01% BSA, and 0.0005% Tween-20. The kinase reaction components were 2.5 nM JAK3, 1 μM SRCtide peptide and 1 uM ATP. Examples were tested in dose-response starting at 2 μM (11 concentrations, 3-fold serial dilution, duplicate reactions). The reactions were incubated at room temperature for 40 minutes, then stopped by adding a 1:1 volume of 30 mM EDTA in 20 mM HEPES, pH 7.5 (15 mM EDTA final). After the reaction was stopped, the phosphorylated and unphosphorylated peptides were separated and quantified using a Caliper LC3000/EZ-Reader system and HTS Well Analyzer Software (Caliper, A PerkinElmer Company, Hopkinton, Mass.). GraFit (Erithacus Software Ltd., Horley, U.K.) was used to calculate inhibitor potency by fitting dose-response data to the 4-parameter logistical IC50 equation.
(§1) Background signal is defined in the absence of enzyme and uninhibited signal is defined in the presence of vehicle (2% DMSO) alone. Compounds were evaluated in an 11 point dose-response ranging from […] to 0.34 nM. IC50 values of compounds are determined using a 4 parameter logistical fit of emission ratio as a function of the concentration of compound.

JAK1 = JAK1 (Homo sapiens (Human), UniProt P23458); assay: JAK1 enzyme activity assay (Thermo Fisher SelectScreen Z-lyte); type: biochemical; conditions: 1 hour kinase reaction, read-out: JAK1 Inhibition IC50
Sequence of JAK1 (P23458 whole entry): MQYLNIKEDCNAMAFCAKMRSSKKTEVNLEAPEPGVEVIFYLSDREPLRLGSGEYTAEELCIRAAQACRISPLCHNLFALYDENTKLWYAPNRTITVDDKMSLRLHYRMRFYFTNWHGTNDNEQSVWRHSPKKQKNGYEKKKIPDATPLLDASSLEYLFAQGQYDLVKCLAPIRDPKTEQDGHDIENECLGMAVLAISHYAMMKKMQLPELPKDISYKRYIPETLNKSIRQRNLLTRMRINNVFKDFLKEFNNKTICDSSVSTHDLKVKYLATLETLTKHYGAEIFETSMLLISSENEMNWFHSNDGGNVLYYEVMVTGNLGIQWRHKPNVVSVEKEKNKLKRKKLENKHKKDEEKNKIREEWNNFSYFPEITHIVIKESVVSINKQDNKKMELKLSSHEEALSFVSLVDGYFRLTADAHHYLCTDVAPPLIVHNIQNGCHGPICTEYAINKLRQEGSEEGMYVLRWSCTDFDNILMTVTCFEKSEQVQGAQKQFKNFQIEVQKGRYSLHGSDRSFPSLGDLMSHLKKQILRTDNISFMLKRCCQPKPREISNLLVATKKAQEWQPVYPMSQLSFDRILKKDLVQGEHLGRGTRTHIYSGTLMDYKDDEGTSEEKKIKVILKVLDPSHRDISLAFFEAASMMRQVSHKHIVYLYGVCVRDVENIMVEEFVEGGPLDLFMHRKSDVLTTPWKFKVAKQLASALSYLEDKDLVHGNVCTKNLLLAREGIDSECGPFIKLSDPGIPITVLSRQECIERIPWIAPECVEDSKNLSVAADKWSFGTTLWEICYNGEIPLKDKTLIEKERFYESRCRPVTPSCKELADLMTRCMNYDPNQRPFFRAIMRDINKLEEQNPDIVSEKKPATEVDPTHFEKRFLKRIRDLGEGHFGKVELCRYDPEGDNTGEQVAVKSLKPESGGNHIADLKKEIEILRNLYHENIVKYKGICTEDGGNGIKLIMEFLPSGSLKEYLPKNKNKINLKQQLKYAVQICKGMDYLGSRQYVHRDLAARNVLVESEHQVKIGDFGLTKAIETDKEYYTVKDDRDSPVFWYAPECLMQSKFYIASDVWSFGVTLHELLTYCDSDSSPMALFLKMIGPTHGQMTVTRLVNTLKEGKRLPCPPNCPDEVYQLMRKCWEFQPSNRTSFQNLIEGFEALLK
Experimental: The inhibitory potency of candidate compounds of JAK1 done at Thermo Fisher Scientific in their Selectscreen using a Z-lyte assay. The 2×JAK1/Tyr 06 mixture is prepared in 50 mM HEPES pH 6.5, 0.01% BRIJ-35, 10 mM MgCl2, 1 mM EGTA, 0.02% NaN3. The final 10 μL of the Kinase Reaction consists of 21.2-91.5 ng JAK1 and 2 μM Tyr 06 in 50 mM HEPES pH 7.0, 0.01% BRIJ-35, 10 mM MgCl2, 1 mM EGTA, 0.01% NaN3. After the 1 hour Kinase Reaction incubation, 5 μL of a 1:128 dilution of Development Reagent is added.
as §1

[1] = tested on: IL-2 stimulated STAT5 phosphorylation on Tyr694 (JAK1/3); assay: JAK1/3 cellular target modulation: IL-2 stimulated phospho-STAT5 in PBMC; type: cell-based; conditions: IL-2 25 ng/ml, 1 hour compound preincubation, read-out: IL2-STAT5 Inhibition IC50
Text: (§2) Target modulation was based upon the ability of a compound to inhibit JAK isoform specific phosphorylation of selected substrates. IL-2 stimulated STAT5 phosphorylation on Tyr694 was used to assess JAK1/3 compound selectivity. GM-CSF stimulated STAT5 phosphorylation on Tyr694 was used to assess JAK2 compound selectivity. IFNγ stimulated STAT1 phosphorylation on Tyr701 was used to assess JAK1/2 compound selectivity. For all three assays, human PBMC from frozen stocks were thawed, pelleted, resuspended in complete media (90% RPMI, 10% heat inactivated FBS, 10 mM HEPES, 47 μM 2-ME, pen/strep) and placed in wells of a 96 well V-bottom plate at 200,000 per well in 120 μl complete media. Compounds were added as 15 μl per well of 10× working stock solutions in complete media with 1% DMSO (or medium with 1% DMSO for controls) and placed on a plate shaker in a 37° C. incubator with 5% CO2 for 1 hour with gentle shaking (setting of 3). Stimulation used the addition of soluble cytokines. For the JAK1/3 phospho-STAT5 assay, 15 μl of 10× working stock recombinant human IL-2 was added to a final concentration of 25 ng/ml. For the JAK2 phospho-STAT5 assay, 15 μl of 10× working stock recombinant human GM-CSF was added to a final concentration of 5 ng/ml. For the JAK1/2 phospho-STAT1 assay, 15 μl of 10× working stock of recombinant human IFNγ was added to a final concentration of 10 ng/ml. Plates were then placed back on the plate shaker in the incubator for an additional 5, 5 and 10 minutes respectively upon which the plates were removed from the incubator, sealed with a plate sealer and the cells pelleted at 400×g for 5 minutes. After pelleting, the media was removed by aspiration and the cells were lysed in ELISA specific cell lysis buffer. The levels of phospho-STAT5 were determined using a Phospho (Tyr694)/Total STAT5a,b Whole Cell Lysate kit from Meso Scale Discovery. Levels of phospho-STAT1 were determined using a CST-PathScan Phospho-STAT1 (Tyr701) Sandwich ELISA kit.

[2] = tested on: IFNγ stimulated STAT1 phosphorylation on Tyr701 (JAK1/2); assay: JAK1/2 cellular target modulation: IFNγ stimulated phospho-STAT1 in PBMC; type: cell-based; conditions: Homo sapiens, PBMC, IFNγ 10 ng/ml, 1 hour compound preincubation, read-out: Infγ-STAT1 IC50
Text: as §2

IC50 (JAK3 (a.a. 781-1124))	IC50 (JAK1)	IC50 ([1]; Homo sapiens, PBMC)	IC50 [2]	Compound	IC50 ([1]; human PBMC)
≤ 10 nM	≤ 10 nM	≤ 100 nM	100 to 1000 nM	CCOC(=O)c1cnc2[nH]ccc2c1N[C@H]1CCC[C@@H](CCC#N)C1 (racemic) [Example 133, (rac)-(cis)-ethyl 4-((3-(2-cyanoethyl)cyclohexyl)amino)-1H-pyrrolo[2,3-b]pyridine-5-carboxylate]	–
100 to 1000 nM	100 to 1000 nM	> 1000 nM	–	CCOC(=O)c1cnc2[nH]ccc2c1N(C)[C@H]1CC[C@H](O)C1 (single isomer, unassigned) [Example 68A, (trans)-Ethyl 4-((-3-hydroxycyclopentyl)(methyl)amino)-1H-pyrrolo[2,3-b] pyridine-5-carboxylate]	–
10 to 100 nM	100 to 1000 nM	> 1000 nM	–	CCOC(=O)c1cnc2[nH]ccc2c1N(C)[C@@H]1CC[C@@H](O)C1 (single isomer, unassigned) [Example 68B, (trans)-Ethyl 4-((-3-hydroxycyclopentyl)(methyl)amino)-1H-pyrrolo[2,3-b]pyridine-5-carboxylate]	–
100 to 1000 nM	100 to 1000 nM	> 1000 nM	–	C[C@@H]1CCN(C(=O)CC#N)C[C@@H]1Nc1c(C(=O)OC(C)(C)C)cnc2[nH]ccc12 [Example 119, tert-butyl 4-(((3R,4R)-1-(2-cyanoacetyl)-4-methylpiperidin-3-yl)amino)-1H-pyrrolo[2,3-b]pyridine-5-carboxylate]	–
100 to 1000 nM	100 to 1000 nM	> 1000 nM	–	C[C@@H]1CCN(C(=O)CC#N)C[C@@H]1Nc1c(C(=O)O)cnc2[nH]ccc12 [Example 120, 4-(((3R,4R)-1-(2-cyanoacetyl)-4-methylpiperidin-3-yl)amino)-1H-pyrrolo[2,3-b]pyridine-5-carboxylic acid trifluoroacetic acid Salt]	–
10 to 100 nM	100 to 1000 nM	> 1000 nM	–	CCOC(=O)c1cnc2[nH]ccc2c1N[C@H]1CCCN(C(=O)CC#N)C1 [Example 143, ethyl (S)-4-((1-(2-cyanoacetyl)piperidin-3-yl)amino)-1H-pyrrolo[2,3-b]pyridine-5-carboxylate]	–

Continued, compound first:

Compound	IC50 (JAK3 (a.a. 781-1124))	IC50 (JAK1)	IC50 ([1]; Homo sapiens, PBMC)	IC50 [2]	IC50 ([1]; human PBMC)
CCOC(=O)c1cnc2[nH]ccc2c1NC1CCC(CCC#N)C1 (mixture of isomers) [Example 153, Ethyl 4-((3-(2-cyanoethyl)cyclopentyl)amino)-1H-pyrrolo[2,3-b]pyridine-5-carboxylate as a mixture of 2 stereoisomers]	≤ 10 nM	≤ 10 nM	≤ 100 nM	100 to 1000 nM	–
CCOC(=O)c1cnc2[nH]ccc2c1N(C)[C@H]1CC[C@H](OC(=O)CC#N)C1 (single isomer, unassigned) [Example 69, (trans)-ethyl 4-((3-(2-cyanoacetoxy)cyclopentyl)(methyl)amino)-1H-pyrrolo[2,3-b]pyridine-5-carboxylate]	100 to 1000 nM	100 to 1000 nM	–	–	> 1000 nM
CCOC(=O)c1cnc2[nH]ccc2c1N(C)[C@H]1CC[C@H](CS(=O)(=O)NC)CC1 [Example 94, ethyl 4-(methyl((1r,4r)-4-((N-methylsulfamoyl)methyl)cyclohexyl)amino)-1H-pyrrolo[2,3-b]pyridine-5-carboxylate]	10 to 100 nM	–	–	–	–
N#CCC(=O)N1CCC[C@@H](Nc2c(C(=O)O)cnc3[nH]ccc23)C1 [Example 121, (R)-4-((1-(2-cyanoacetyl)piperidin-3-yl)amino)-1H-pyrrolo[2,3-b]pyridine-5-carboxylic acid trifluoroacetic acid Salt]	100 to 1000 nM	100 to 1000 nM	> 1000 nM	–	–
CCOC(=O)c1cnc2[nH]ccc2c1N[C@@H]1CCCN(C(=O)[C@@H]2CC2(F)F)C1 [Example 156, ethyl 4-(((R)-1-((S)-2,2-difluorocyclopropane-1-carbonyl)piperidin-3-yl)amino)-1H-pyrrolo[2,3-b]pyridine-5-carboxylate]	10 to 100 nM	–	100 to 1000 nM	–	–
